Reference: a melting point compilation (Tetko et al.; mined from patent text by program, amines drawn as free bases though some values may be those of a salt)

SMILES | melting point
CCn1c2c(c3ccccc3c1=O)C(=O)c1ccccc1-2 | 188 to 189 °C
O=C1c2cc(OCc3ccc4ccccc4n3)ccc2SCC1Cc1ccccc1 (stereo not given) | 127 to 130 °C
CCCCCCCCCCCCCCCCN1C(=O)C2=C(c3cccs3)N(CCCCCCCCCCCCCCCC)C(=O)C2=C1c1cccs1 | 124 to 125 °C
O=C(O)c1ccc(-c2cnc(-c3ccc(C(F)(F)F)cc3)s2)cc1 | 294 to 295 °C
O=c1ccn(-c2ccccc2OC(F)F)nc1-c1ccnn1-c1ccccc1 | 123 to 124 °C
CC(C)CN(C=Nc1nnnc2c1ncn2C1CC(O)C(CO)O1)CC(C)C (stereo not given) | 138 to 140 °C
CCc1noc(CC(=O)c2ccccc2)c1C(=O)NC | 134 to 136 °C
CCOC(=O)c1c2ccc(CC(=O)NOCCO)ccc-2c(C(=O)OCC)c1N | 190 to 192 °C
C[C@H](CC(=O)[C@H](Cc1ccccc1)OC(=O)c1ccccc1)C(=O)N1CCC[C@H]1C(=O)O | 130 to 134 °C
CC1NC(=O)NN=C1c1ccc(N(C)C)cc1 (stereo not given) | 255 to 261 °C
Cn1c(Oc2cccc(C(F)(F)F)c2)nc2c(-c3cccc(C(=O)NCC(N)=O)c3)cccc21 | 185 to 186 °C
CN1CCC2(CC1)NC(=O)N(c1ccc(C#N)c(C(F)(F)F)c1)C2=O | 188 to 189 °C
COc1ccc(Oc2cc3nc(-c4ccccc4)oc3cc2[N+](=O)[O-])cc1 | 142 to 146 °C
Cn1nc(-c2cccc(-n3ncc4cc(C(C)(C)C)cc(F)c4c3=O)c2CO)cc(Nc2cnc(C(F)(F)F)cn2)c1=O | 250 to 254 °C
O=C1CCC(C(=O)OC(C(=O)c2ccccc2)c2ccccc2)N1 (stereo not given) | 123 to 131 °C
O=c1cc(C(F)(F)F)nc[nH]1 | 157 °C
Cc1ccc(S(=O)(=O)OCC2Cc3ccc(O)cc3O2)cc1 (stereo not given) | 107 to 110 °C
Nc1sc2c(c1C(=O)c1ccc(Cl)cc1)CCSC2 | 142 to 146 °C
CCCCCCCOc1ccc(C(=O)Nc2ccccc2OCc2nnn[nH]2)cc1 | 148 to 150 °C
CCCN(CCCCNC(=O)N1CC=C(c2ccccc2)CC1)C1CCc2ncsc2C1 (stereo not given) | 115 °C

SMILES | melting point
COc1cccc(OC)c1C(=O)P(=O)(c1ccccc1)c1ccccc1 | 124 to 126 °C
Cc1cccc(C)c1/N=C1\SCC(=O)N1N | 149 to 152 °C
CCSc1cccc(C)c1S(=O)(=O)NC(C)(C)C | 94 °C
CCN1CCNC(=O)C1c1ccc(Nc2nc(Br)cn(CC)c2=O)cc1 (stereo not given) | 152 to 153 °C
CSc1ncc2cc(Oc3c(F)cccc3F)c(=O)n(C)c2n1 | 247 to 251 °C
Cc1nc2c3c(ccc2n1C)C(=O)N1C(=O)C(C)(C(C)C)N=C31 (stereo not given) | 258 to 263 °C
CCCCCCCCCCCCCCCCCCCCCC(=O)NN | 117 °C
CCc1c(-c2ccc(O)cc2)c2ccc3c(NC(C)=O)ccc1n32 | 147 to 149 °C
CCn1nc(N)nc1NCCCOc1cccc(CN(C)C)c1 | 104 to 105 °C
CC/C(=C\CCC(O)(CC)CC)c1cc(CCc2ccc(CO)c(CO)c2)cs1 | 85 to 86 °C
CCCCOc1ccc(-c2ncc(C#N)c(Cl)n2)cc1 | 170 °C
CCCCCCCCCCCCCCOc1ccc(CC(=O)Nc2cccc(CBr)c2)cc1 | 116 to 118 °C
O=C(NC(=O)c1ccccc1Cl)Nc1cnc(C(F)(F)F)cn1 | 219 to 220 °C
CCCOc1ccc(COCC)cc1-c1nc2c(CCC)nn(C)c2c(=O)[nH]1 | 89 to 90 °C
CN(C)CCCCNC(=O)c1ccccc1-c1nnc(CSCCOc2ccccc2)o1 | 62 to 65 °C
Oc1ccc(Nc2nnc(Cc3ccncc3)c3ccccc23)cc1 | 239 to 241 °C
Cc1cc(O)c2c(C)nn(-c3ccccn3)c2n1 | 175 to 176 °C
CN(C)c1ccc(/C=C/c2ccc(F)cc2F)cc1 | 139 to 140 °C
CCCCCCCNC(=NC#N)Nc1cccnc1 | 90 to 91 °C
CCCCCC#CCC#CCC#CCC#CCO | 54 to 56 °C
